Experimental findings from patent US20040152631A1, “Methods for manipulating ejaculatory reflex and sensation of ejaculation and for treating sexual dysfunction” (priority 2002, published 2004) are described below.

Where “and” joins values, the source holds several entries; their conditions need not be identical. Identical values can stand only once.

One series concerns male rats. Nature of the series: Copulatory behavior after 8-OH-DPAT. Format: in vivo. The conditions noted are these: 0.8 mg/kg s.c. 30 minutes before test; E1-DP rats, n=3. As to the method: All male and female rats are sexually experienced. […] The female rats are bilaterally ovariectomized two weeks prior to testing. Sexual receptivity is induced using a standard regimen of exogenous estrogen and progesterone, similar to that used for the stimulus females, described above. One week before testing females receive hormone treatment and mating experience with sexually experienced male partners. All testing of experimental groups is performed four hours after onset of the dark period, in a rectangular mating arena (60-45-50 cm), under dim red illumination. After completion of the mating tests, the sexual partners are removed, and experimental animals remained in the test cage for an additional 60 minutes until sacrifice.
The number of mounts, intromissions and total duration of the tests, are recorded for analysis of copulatory behavior. Numbers of mounts and intromissions, as well as duration of test are compared using a one-way ANOVA. Post hoc comparisons are made using the Scheffe test with an alpha of 0.05 required for rejection of the null hypothesis.
The purpose of this example is to investigate neural activation of lumbar spinal cord in male rats that display minimal sexual activity prior to ejaculation. Therefore, male rats are treated with 8-hydroxy-2-(di-n-propylamino) tetralin (8-OH-DPAT), which decreases the number of mounts and intromissions prior to ejaculation. […]

For series [1], the system named is LSt neurons. Nature of the series: Fos-IR in galanin-IR LSt neurons after 8-OH-DPAT. The series is classed as in vivo, male rats. The conditions noted are these: 0.8 mg/kg s.c. As to the method: Activation of LSt neurons is assessed using Fos immunoreactivity (IR) as a marker for neural activation and galanin or CCK-IR to identify LSt cells.
One hour following the end of the behavioral test, animals are anesthetized using sodium pentobarbital (200 mg/kg; i.p.) and perfused transcardially with 100 ml 0.9% saline, followed by 500 ml of 4% paraformaldehyde in 0.1 M sodium phosphate buffer (PB, pH 7.3-7.4). Brain and spinal cords are removed and post fixed for 1 hr at room temperature in the fixative. Coronal sections of thoracic (T), lumbar (L) and sacral (S) spinal cord (T10-S4) are cut at 35 μm on a Microm freezing microtome (Richard Allen, Kalamazoo, Mich.) and collected in twelve parallel series in cryorotectant solution (30% sucrose, 30% ethylene glycol in 0.1 M PB; Watson et al, 1985). In addition, coronal sections ( 35 µm) through thalamus are cut and stored in four parallel series.
All incubations are performed at room temperature with gentle agitation. Series of spinal cord sections ([…]) are rinsed extensively in phosphate buffered saline (PBS) between incubations. Free-floating sections are blocked with 1% H2O2 for 10 min at room temperature and then soaked for one hour in incubation solution (PBS containing 0.1% bovine serum albumin and 0.4% triton X-100). Next, sections are incubated overnight with a primary antiserum in incubation solution to recognize Fos (polyclonal anti-Fos antiserum raised in rabbit; 1:10,000; Santa Cruz, Santa Cruz, Calif.). […]
Analysis of labeling for galanin or CCK, Fos, and dual labeling for Fos and Galanin or CCK, is performed on a Leica light microscope at 4×-40× magnification. Neurons single labeled for galanin or CCK are determined by brown staining of cytoplasm with a nucleus devoid of blue-black (Fos) reaction product. […] Dual labeling is expressed as the percentage of galanin or CCK cells that expressed Fos. […]

Series [2] relates to LSt neurons. Nature of the series: Cell counts (galanin-IR, SPR-IR, NeuN-IR) in L3-L4 spinal cord after intraspinal SSP-SAP or SAP. The series is classed as in vivo. The conditions noted are these: complete = galanin-IR LSt neurons less than 1/3 of untreated rats. The text has this: First a membrane target located on the LSt neurons is identified. […] Identification of the SPR receptor on LSt cells enable the use of the targeted toxin SSP-SAP, which consists of the ribosome inhibitor protein toxin saporin (SAP) conjugated to a substance P analogue (SSP) with high affinity for SPR. SSP-SAP is infused into the L3-4 spinal cord at the location of the LSt cells in sexually experienced or sexually naive male rats. Male rats are allowed to mate with a receptive female during 6 pre-operative sessions (3 ejaculations or 100 minutes each).
All procedures are approved by the Animal Care and use Committee of the University of Cincinnati, Ohio and conformed to NIH guidelines involving vertebrate animals in research. Male rats are deeply anesthetized using ketamine/xylazine and laminectomy of L3 and L4 is performed. […]
Control animals are injected with non-conjugated equimolar concentrations of SAP. […] Latencies and numbers of mounts, intromissions, and ejaculations are recorded, and vaginas of females are checked for seminal plugs multiple times during mating tests. […]
Non-specific lesioning is determined by counting neurons visualized by neuronal marker N-IR. SPR containing cells are also counted in a standard area in the dorsal horn, as illustrated in FIG. 2A (area 2), to determine if lesioning is restricted to the area surrounding the central canal. […]

Series [3] concerns LSt neurons. Nature of the series: Optical density of galanin-IR and SPR-IR around IML, CAN and SPN after LSt lesion. Format: in vivo, rats. The source says:
In these areas galanin-IR is present in fibers, while SPR-IR is located in neurons and fibers. […] In contrast, SPR-IR is not reduced following LSt lesions.
Following the final behavior test, animals are perfused intracardially with 4% paraformaldehyde and spinal cord tissue is collected for further processing. Spinal cords are cut into 35μm coronal sections and collected in 12 parallel series. Adjacent sections are stained for galanin, SPR or neuronal marker N using the general procedures as described in W. Truitt, M. Shipley, J. Veening, L. Coolen, J. Neurosci (2002). The primary antibodies and concentrations that are used include: Galanin—rabbit anti-galanin at 1:80,000 (PenLabs), Substance P receptor—rabbit anti-NK1 at 1:1,000 (Advanced Targeting Systems), and Neuronal marker N—mouse anti-NeuN at 1:10,000 (Chemicon).

Series [4] relates to LSt neurons. Nature of the series: Sexual behavior tests after lesion surgery. Format: in vivo, male rats. The conditions noted are these: 6 post-surgery tests, 100 minutes with receptive female. As to the method:
(§1) Control animals are injected with non-conjugated equimolar concentrations of SAP. […] Rats with obvious motor impairment after surgery (n=10; 7 injected with SAP; 3 injected with SSP-SAP) are excluded from the study. Sexual behavior is first tested 10 days after lesion surgery, and during 5 subsequent twice-weekly tests. The trials are performed during the dark phase of the light cycle and consisted of the male rat being placed into the testing cage for 100 minutes with a receptive female. Stimulus females were ovariectomized and implanted subcutaneously (s.c.) with 5% 17-beta-estradiol benzoate silastic capsules. Progesterone (500 μg in 0.1 ml of sesame oil) was injected (s.c.) 4-6 hours prior to testing to induce sexual receptivity. Latencies and numbers of mounts, intromissions, and ejaculations are recorded, and vaginas of females are checked for seminal plugs multiple times during mating tests.
The effects of LSt lesions on display of sexual behavior are assessed in the three groups described above. LSt lesions have a dramatic effect on sexual behavior. […] Furthermore, ablation of LSt neurons appears to selectively block ejaculatory behavior while not affecting other components of sexual behavior.

Series [5] can be described thus: Motor impairment after surgery. The conditions noted are these: number of SAP-injected control rats excluded; 10 excluded in total (3 SSP-SAP). The series is classed as in vivo. As to the method:
as §1

Regarding `CCCN(CCC)C1CCc2cccc(O)c2C1` (centres unmarked) [8-OH-DPAT, 8-hydroxy-2-(di-n-propylamino) tetralin], in the series with male rats, the “average number of intromissions prior to ejaculation” value stood at 1.33±0.67 and the “average number of mounts prior to ejaculation” value is reported as 2.33±1.20. In the series on LSt neurons [1] (8-OH-DPAT alone, no exposure to female (DPc group)), the “activation of Galanin neurons (Fos)” value was “do not result in activation”. Further, in the series with LSt neurons [1] (E1-DP males, after one ejaculation), the “Galanin-IR neurons containing Fos-IR” value is reported as 85.55%±1.76. For the same compound, the “mean number of galanin-IR neurons” value in the series on LSt neurons [1] (two groups (one ejaculation / no female), order of values not stated) was 33.67±4.06 and 33.33±5.53.

Consider saporin, for which, in the series with LSt neurons [2], the “lesions of LSt neurons” value is reported as “no lesions”. Besides, the CAN-SPR optical density in the series on LSt neurons [3] (Substance P receptor-IR around central autonomic nucleus, group in label) is listed as 380.26 ± 39.06 pixels (×1,000). Also, the IML-SPR optical density in the series with LSt neurons [3] (Substance P receptor-IR around intermediolateral column, group in label) is 209.91 ± 30.92 pixels (×1,000). For the same compound, the SPN-SPR optical density in the series with LSt neurons [3] (Substance P receptor-IR around sacral parasympathetic nucleus, group in label) is 392.68 ± 50.65 pixels (×1,000). Also, the CAN-galanin optical density with LSt neurons [3] (galanin-IR around central autonomic nucleus, group in label) is 128.84 ± 25.81 pixels (×1,000). Moreover, the IML-galanin optical density with LSt neurons [3] (galanin-IR around intermediolateral column, group (SAP, SSP-il, SSP-les) in label) is given as 58.82 ± 12.85 pixels (×1,000). In addition, in the series with LSt neurons [3] (galanin-IR around sacral parasympathetic nucleus, group in label), the SPN-galanin optical density is given as 137.75 ± 14.99 pixels (×1,000). Moreover, in the series with LSt neurons [4], the “display of ejaculatory behavior” value is “continue to ejaculate regularly”. Further, in series [5], the “rats with obvious motor impairment after surgery (excluded)” value turned out to be 7.
